Tests used:
Experiment in all cases: relative viability (nuclei count vs DMSO), 5 days (fraction); higher = more cells survive
[1] = compound: Cn1cc(-c2cnn3c(N)c(Br)c([C@@H]4CCCNC4)nc23)cn1
Procedure, shortened: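 Lung cancer cell lines in 1536-well plates were kept overnight at 37 °C, then pinned with five library-drug doses (not always all listed) spaced by √10 on vehicle-anchored plates. After 5 days without medium change, cells were fixed, permeabilised and Hoechst-stained in one step, imaged at 4×, and nuclei were counted with MetaXpress. Viability is treated-well nuclei divided by vehicle-well nuclei, taken as the median over plates. Plates passed only with control CV below 25% and at least one doubling.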

[2] = compound: Cn1cc(-c2cnn3c(N)c(Br)c([C@@H]4CCCNC4)nc23)cn1 + CC1(C)CCC(c2ccc(Cl)cc2)=C(CN2CCN(c3ccc(C(=O)NS(=O)(=O)c4ccc(N[C@H](CCN5CCOCC5)CSc5ccccc5)c(S(=O)(=O)C(F)(F)F)c4)cc3)CC2)C1 [Navitoclax] (partner 0.5 µM)
Procedure, shortened: (§1)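 Relative viability equals treated-well nuclei counts divided by vehicle-well nuclei counts. Counts came from 4× images of lung cancer cell lines grown in 1536-well plates for 5 days after pin-tool dosing on the day after seeding. Dosing used one drug alone or a fixed anchor-drug dose plus five library-drug doses (not always all listed) in √10 steps, and values are medians of duplicate plates.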

[3] = compound: Cn1cc(-c2cnn3c(N)c(Br)c([C@@H]4CCCNC4)nc23)cn1 + Cc1cc(Nc2cc(N3CCN(C)CC3)nc(Sc3ccc(NC(=O)C4CC4)cc3)n2)n[nH]1 [Tozasertib] (partner 0.1 µM)
Procedure, shortened: as §1

[4] = compound: Cn1cc(-c2cnn3c(N)c(Br)c([C@@H]4CCCNC4)nc23)cn1 + N=C(N)NC(=N)NCCc1ccccc1 [Phenformin] (partner 250 µM)
Procedure, shortened: as §1

Row | Cell Line | relative viability ([1]; 0.05 µM) | relative viability ([1]; 0.1581 µM) | relative viability ([1]; 0.5 µM) | relative viability ([1]; 1.581 µM) | relative viability ([1]; 5 µM) | relative viability ([2]; first compound 0.05 µM) | relative viability ([2]; first compound 0.1581 µM) | relative viability ([2]; first compound 0.5 µM) | relative viability ([2]; first compound 1.581 µM) | relative viability ([2]; first compound 5 µM) | relative viability ([3]; first compound 0.05 µM) | relative viability ([3]; first compound 0.1581 µM) | relative viability ([3]; first compound 0.5 µM) | relative viability ([3]; first compound 1.581 µM) | relative viability ([3]; first compound 5 µM) | relative viability ([4]; first compound 0.05 µM) | relative viability ([4]; first compound 0.1581 µM) | relative viability ([4]; first compound 0.5 µM) | relative viability ([4]; first compound 1.581 µM) | relative viability ([4]; first compound 5 µM)
1 | COR-L23 | 1.08 | 1.26 | 1.11 | 0.803 | 0.45 | 0.854 | 1.13 | 0.973 | 0.965 | 0.346 | 0.201 | 0.158 | 0.211 | 0.163 | 0.102 | 0.479 | 0.474 | 0.443 | 0.298 | 0.191
2 | COR-L 105 | 0.85 | 0.85 | 0.843 | 0.705 | 0.656 | 0.742 | 0.693 | 0.649 | 0.713 | 0.454 | 0.31 | 0.4 | 0.293 | 0.312 | 0.321 | 0.504 | 0.508 | 0.452 | 0.379 | 0.301
3 | ChaGo-K-1 | 0.99 | 1.08 | 1.09 | 0.89 | 0.997 | 0.966 | 0.967 | 0.981 | 0.737 | 0.607 | 0.222 | 0.22 | 0.227 | 0.224 | 0.225 | 0.467 | 0.523 | 0.509 | 0.46 | 0.503
4 | EKVX | 1.04 | 1.01 | 1.07 | 0.862 | 0.929 | 0.828 | 1.13 | 0.911 | 0.918 | 0.782 | 0.423 | 0.449 | 0.448 | 0.462 | 0.344 | 0.223 | 0.254 | 0.257 | 0.245 | 0.194
5 | EMC-BAC-2 | 0.917 | 1.03 | 0.976 | 0.949 | 0.827 | 1.26 | 1.25 | 1.14 | 1.01 | 1.43 | 0.277 | 0.292 | 0.251 | 0.252 | 0.218 | 0.515 | 0.509 | 0.505 | 0.405 | 0.461
6 | EPLC-272H | 1 | 0.974 | 0.896 | 0.628 | 0.379 | 1.2 | 1.1 | 1.2 | 0.966 | 0.969 | 0.252 | 0.249 | 0.25 | 0.247 | 0.226 | 0.288 | 0.275 | 0.321 | 0.292 | 0.188
7 | H3255 | 1.02 | 0.935 | 1.03 | 0.974 | 0.57 | 0.561 | 0.507 | 0.379 | 0.531 | 0.29 | 0.614 | 0.569 | 0.727 | 0.224 | 0.447 | 0.372 | 0.353 | 0.345 | 0.385 | 0.322
8 | HARA | 0.975 | 1.03 | 1.31 | 0.761 | 0.301 | 1.11 | 1.21 | 1.25 | 1.05 | 0.725 | 0.115 | 0.616 | 0.0879 | 0.0826 | 0.0524 | 0.468 | 0.518 | 0.448 | 0.36 | 0.136

From the supplement of paper PMC10307832
